By IC50 is commonly meant the concentration that gives 50% inhibition. For orientation: bioavailability means dose-corrected exposure relative to a reference, in per cent. As a reminder, the AUC is the area under the concentration-time curve, a measure of exposure. Read a low AUC as less exposure. In general, half-life refers to how long it takes for the measured level to halve. Higher therefore signals slow loss.

In data set [1] the target is T1, Corticotropin-releasing factor receptor 1 (Homo sapiens, UniProt P34998).
T1 sequence (P34998 whole entry): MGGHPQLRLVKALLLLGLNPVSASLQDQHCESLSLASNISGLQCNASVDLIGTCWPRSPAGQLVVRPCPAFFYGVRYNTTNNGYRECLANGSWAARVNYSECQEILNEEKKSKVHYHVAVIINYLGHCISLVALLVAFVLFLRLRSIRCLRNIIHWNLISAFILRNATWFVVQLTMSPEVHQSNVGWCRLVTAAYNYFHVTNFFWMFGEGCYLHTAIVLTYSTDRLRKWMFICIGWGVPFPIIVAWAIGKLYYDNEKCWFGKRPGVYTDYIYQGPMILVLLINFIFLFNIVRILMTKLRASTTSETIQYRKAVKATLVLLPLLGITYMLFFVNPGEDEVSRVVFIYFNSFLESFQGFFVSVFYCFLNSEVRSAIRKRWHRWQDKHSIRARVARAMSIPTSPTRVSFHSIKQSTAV
Put plainly: Displacement of [125I]CRF from human recombinant CRF1 receptor expressed in CHO cell membrane. The class given is cell membranes. Background: Loss of bound radioactivity is the signal in a displacement assay; it reports binding, not function.

Data set [2] is described as follows: Plasma clearance in Sprague-Dawley rat at 1 mg/kg, po and 0.4 mg/kg, iv. In kind it is ADME, organism-based.
A short description of data set [3]: Oral bioavailability in Sprague-Dawley rat at 1 mg/kg. The class given is ADME, organism-based. The following applies: in vivo.
A short description of data set [4]: Volume of distribution at steady state in Sprague-Dawley rat at 1 mg/kg, po and 0.4 mg/kg, iv. The class given is ADME, organism-based. The following applies: in vivo, read-out: Vdss.
Data set [5] in a line: AUC in Sprague-Dawley rat at 1 mg/kg, po and 0.4 mg/kg, iv. The class given is ADME, organism-based. To be noted: plasma.
The nature of data set [6]: Half life in Sprague-Dawley rat at 1 mg/kg, po and 0.4 mg/kg, iv. The class given is ADME, organism-based. To be noted: in vivo.

The structures appear in SMILES notation.

Take `CCC(CC)n1cc2c3c(nc(C)cc31)N(c1ccc(C#N)cc1C)CC2`: the half-inhibitory concentration (IC50) in data set [1] is 12.6 nM.

Turning to `CCC(COC)n1cc2c3c(nc(C)cc31)N(c1ccc(OC)cc1C)CC2` (stereo not drawn), in data set [1], the IC50 is 158 nM.

For the compound `CCC(CC)n1cc2c3c(nc(C)cc31)N(c1ccc(OC(F)(F)F)cc1C)CC2`, the IC50 in data set [1] was 79.4 nM.

Turning to `CCC(CC)n1cc2c3c(nc(C)nc31)N(c1ccc(C(F)(F)F)cc1C(F)(F)F)CC2`, in data set [1], the IC50 is 25.1 nM.

Take `CCCC(CCC)n1cc2c3c(nc(C)cc31)N(c1ccc(OC)cc1C)CC2`: in data set [1], the IC50 was 126 nM.

As for `CCCC(CCC)n1cc2c3c(nc(C)cc31)N(c1ccc(C#N)cc1C)CC2`, the clearance in data set [2] is 54 mL/min/kg. The compound further returned a bioavailability in data set [3] below 5%. Further, in data set [4], the Vd was 17 L/kg. The compound further gave an AUC in data set [5] below 15 ng·h/mL. In data set [6], this compound showed a half-life of 6.7 h. The concentration for half-maximal inhibition (IC50) in data set [1] is 3.98 nM.

For the compound `CCCC(CCC)n1cc2c3c(nc(C)cc31)N(c1ccc(C(F)(F)F)cc1C(F)(F)F)CC2`, the clearance in data set [2] stood at 8 mL/min/kg. The compound further yielded a bioavailability in data set [3] of 71%. In addition, the Vd in data set [4] worked out at 2.5 L/kg. Further, the AUC in data set [5] was found to be 1480 ng·h/mL. Further, the half-life in data set [6] is 5.3 h. Besides, the IC50 in data set [1] was 100 nM.

Turning to `COCC(COC)Nc1nc(C)nc2c(-c3ccc(Cl)cc3Cl)c(C)nn12`, in data set [1], the IC50 is 39.8 nM.

Consider `CCCC(CCC)n1cc2c3c(nc(C)nc31)N(c1ccc(C#N)cc1C)CC2`, for which the IC50 in data set [1] was 50.1 nM.

Turning to `CCC(COC)n1cc2c3c(nc(C)cc31)N(c1ccc(C#N)cc1C)CC2` (stereo not drawn), in data set [1], the IC50 is 39.8 nM.

As to `CCCCN(CC)c1nc(C)nc2c1c(C)cn2-c1c(C)cc(C)cc1C` [CP-154526], the 50% inhibitory concentration (IC50) in data set [1] is 15.8 nM.

With `CCC(CC)n1cc2c3c(nc(C)cc31)N(c1ccc(OC)c(F)c1)CC2`, the IC50 in data set [1] is 50.1 nM.

For `CCCC(CCC)N1CCC2CN(c3ccc(Cl)cc3Cl)c3nc(C)nc1c32` (stereo not drawn), in data set [1], the IC50 was 31.6 nM.

In data set [2], `CCC(CC)n1cc2c3c(nc(C)cc31)N(c1ccc(C(F)(F)F)cc1C(F)(F)F)CC2` yielded a clearance of 21 mL/min/kg. The same compound displayed a bioavailability in data set [3] of 28%. Besides, in data set [4], the Vd worked out at 6.8 L/kg. In addition, the AUC in data set [5] is 222 ng·h/mL. In data set [6], this compound showed a half-life of 7.6 h. Also, in data set [1], the IC50 was 126 nM.

Turning to `CCCC(CCC)n1cc2c3c(nc(C)cc31)N(c1ccc(OC)c(F)c1)CC2`, in data set [2], the clearance was determined as 47 mL/min/kg. This compound also displayed a bioavailability in data set [3] of 37%. Also, in data set [4], the Vd worked out at 24 L/kg. This compound showed an AUC in data set [5] of 131 ng·h/mL. Also, the half-life in data set [6] was 8.6 h. Also, the IC50 in data set [1] is 39.8 nM.

In the case of `CCC(CC)n1cc2c3c(nc(C)cc31)N(c1ccc(OC)cc1)CC2`, in data set [1], the IC50 was 63.1 nM.

`CCCC(CCC)n1cc2c3c(nc(C)nc31)N(c1ccc(C(F)(F)F)cc1C(F)(F)F)CC2`: the IC50 in data set [1] is 15.8 nM.

As to `CCC(CC)n1cc2c3c(nc(C)cc31)N(c1ccc(OC)cc1C)CC2`, in data set [1], the IC50 was 12.6 nM.

Values taken from ChEMBL document CHEMBL1139762, “Novel substituted tetrahydrotriazaacenaphthylene derivatives as potent CRF1 receptor antagonists” (Bioorg Med Chem Lett, 2007).
